Assay results: article PMC10755736, “Modulating Liquid–Liquid Phase Separation of Nck Adaptor Protein against Enteropathogenic Escherichia coli Infection” (ACS Central Science, 2023)
Entries after “also recorded” stand apart in the source; their conditions may differ. Non-standard residues stand in square brackets, D forms with d. Residues, ends and D or L forms follow the SMILES beside them. *: point of attachment. Biotin = O=C1N[C@H]2[C@H](CS[C@H]2CCCCC(=O)*)N1; Benzoyl(4-SO2F) = O=C(c1ccc(S(=O)(=O)F)cc1)*; pY = N[C@@H](Cc1ccc(OP(=O)(O)O)cc1)C(=O)O; Dap = NC[C@H](N)C(=O)O

Assays:
Nck = target: T1, Nck (Homo sapiens, UniProt P16333); test: Reaction of peptides with Nck in Caco-2 cell lysate (Western blotting); format: binding; conditions: lysate of Caco-2 cells (5 µg/µl) overexpressing Nck; peptide 10 µM, 37 °C, 60 min; anti-Nck Western blot
T1 construct: GST (followed by PreScission/HRV 3C site) (N, cleaved yes); made in house; host or cells: E. coli BL21(DE3)
Description: In addition, we performed the reaction between p1 and Nck in a cell lysate, representing a complex solution. We incubated peptide p1 with the lysate of Caco-2 cells overexpressing Nck, and the reaction mixture was resolved on SDS-PAGE and analyzed with Western blotting against an anti-Nck antibody. […] Next, we incubated biotinylated peptide Y474 and Nck solutions with or without p1 peptide, and pulled down proteins that bound with biotinylated Y474.
Figure S7. Reaction of p1 in cell lysate. Biotinylated p1 peptide (10 µM) was incubated with the
lysate of Caco-2 cells (5 µg/µl)to react at 37 °C for 60 min before the mixture was resolved on SDS-
PAGE. Western blotting experiments using an anti-biotin antibody and an anti-Nck antibody, […]

Nck-SH2K331A = test: Covalent reaction of p1 with Nck-SH2 K331A mutant; format: binding; conditions: PBS, 37 °C, 1 min or 10 min; SDS-PAGE
Description: We next identified the residues in Nck-SH2 that are involved in the reaction with p1 by mass spectrometry. […] The Nck–p1 conjugate was digested with trypsin, and peptide fragments were analyzed with an in-line EASY-spray source and nano-LC UltiMate 3000 HPLC system interfaced with an Elite mass spectrometer, operated in the data-dependent acquisition (DDA) mode with one full MS scan at R = 60,000 (m/z = 200) mass followed by HCD MS/MS scans. […] The fragmentation spectral analysis of [EEHIpYXEVAAD(α)] + [HFKVQLK(β)] extracted by pLabel v2.4.3.0 (Figure 5a and Figure S6 in the Supporting Information)[38],[39] confirmed the ligand-directed conjugation of Nck-SH2 protein with p1 peptide. The underlined lysine residue in the β-chain sequence indicated the cross-linked site on the predicted Nck Lys331 residue. Next, we mutated Nck Lys331 to Ala, expressed and purified the Nck-SH2K331A mutant. […]
The reaction mixture of Nck and p1 were digested with trypsin. Digested peptides were analyzed with an in-line EASY-spray source and nano-LC UltiMate 3000 high-performance liquid chromatography system (Thermo Fisher, USA) interfaced with an Elite mass spectrometer (Thermo Fisher, USA). The eluted peptides were detected by the Elite mass spectrometer, which was operated in data-dependent mode with one full MS scan at R = 60,000 (m/z = 200) mass, followed by MS/MS scans. […]

[1] = system: EPEC infection of Caco-2 cells; test: EPEC infection assay of Caco-2 cells (CFU counts); format: cell-based, enteropathogenic Escherichia coli; conditions: L17E 40 μM
Description: Lastly, to examine whether pretreatment of Caco-2 cells with L17E/p1 could prevent EPEC infection, we first established a bacterial infection assay (Figure 7a). Caco-2 cells were pretreated with L17E/p1 for 2 h. After excess peptides were removed, Caco-2 cells were then infected with EPEC at different multiplicity of infection (MOI) values (MOI is commonly defined as the ratio of infectious bacteria to cells in a culture) for 3 h, and extra bacterial cells were removed from the culture. Next, gentamicin was added to the cell culture to remove EPEC that are merely attached to the surface of Caco-2 cells, leaving only engulfed EPEC inside Caco2 cells to be counted (gentamicin treatment will not kill intracellular bacteria due to its cellular impermeability). After gentamicin was washed away, cells were lysed to release EPEC cells inside, and the cell lysates were diluted to count the number of EPEC cells as colony-forming units (cfu) on agar plates.
Caco-2 cells were seeded in a 24-well plate at a density of 1×10^4 cells for 24 h and pretreated with peptide complexes for 2 h. After washing with DMEM, cells were infected with EPEC at selected MOI values for 3 h at 37 ℃. Cells were then treated with gentamicin ([…]) for 2 h and lysed with 1% […]
Triton X-100 for 15 min. […]
The sample was loaded onto 12% SDS/PAGE glycerol gel and then transferred onto a PVDF membrane using Bio-Rad […]. The membrane was blocked and incubated with a rabbit anti-Nck antibody (Abcam, Hong Kong) at 4 °C overnight, followed by a n anti -rabbit HRP -labeled secondary antibody (Abcam, Hong Kong).
SPSS 23.0 statistical software was used to process experimental data. The differences between mean ± SEM of three independent experiments were assessed by Student's t -test.

CC[C@H](C)[C@H](NC(=O)[C@H](Cc1c[nH]cn1)NC(=O)[C@H](CCC(=O)O)NC(=O)[C@H](CCC(=O)O)NC(=O)CCCC[C@@H]1SC[C@@H]2NC(=O)N[C@@H]21)C(=O)N[C@@H](Cc1ccc(OP(=O)(O)O)cc1)C(=O)N[C@@H](CNC(=O)c1ccc(S(=O)(=O)F)cc1)C(=O)N[C@@H](CCC(=O)O)C(=O)N[C@H](C(=O)N[C@@H](C)C(=O)N[C@@H](C)C(=O)N[C@@H](CC(=O)O)C(N)=O)C(C)C [p1] (Biotin-EEHI[pY][Dap](Benzoyl(4-SO2F))EVAAD-NH2; N-terminus and C-terminus assumed)
Nck band shift in cell lysate (Nck): complete band shift
reactivity with Nck-SH2 K331A (Nck-SH2K331A): did not show noticeable reactivity; also recorded: abolished the covalent reaction
efficacy compared with Y474 in anti-infection assay ([1]; p1 vs Y474 at lower concentrations): significantly higher efficacy than Y474 at lower concentrations
blockage of EPEC invasion/infection of Caco-2 cells ([1]; with L17E-mediated delivery): rendered Caco-2 cells resistant to EPEC infection; also recorded: can block EPEC invasion to Caco-2 cells
